Source: ChEMBL document CHEMBL5036321, “Sinularamides A-G, Terpenoid-Derived Spermidine and Spermine Conjugates with Casitas B-Lineage Lymphoma Proto-Oncogene B (Cbl-b) Inhibitory Activities from a Sinularia sp. Soft Coral” (J Nat Prod, 2021)

Biological target: E3 ubiquitin-protein ligase CBL-B (Homo sapiens, UniProt Q13191)
Experiment: Inhibition of Cbl-b (unknown origin) assessed as inhibition of Cbl-b dependent auto-ubiquitination in presence of ATP measured after 13 hrs by fluorescence microplate reader assay

Sequence of E3 ubiquitin-protein ligase CBL-B (Q13191 whole entry): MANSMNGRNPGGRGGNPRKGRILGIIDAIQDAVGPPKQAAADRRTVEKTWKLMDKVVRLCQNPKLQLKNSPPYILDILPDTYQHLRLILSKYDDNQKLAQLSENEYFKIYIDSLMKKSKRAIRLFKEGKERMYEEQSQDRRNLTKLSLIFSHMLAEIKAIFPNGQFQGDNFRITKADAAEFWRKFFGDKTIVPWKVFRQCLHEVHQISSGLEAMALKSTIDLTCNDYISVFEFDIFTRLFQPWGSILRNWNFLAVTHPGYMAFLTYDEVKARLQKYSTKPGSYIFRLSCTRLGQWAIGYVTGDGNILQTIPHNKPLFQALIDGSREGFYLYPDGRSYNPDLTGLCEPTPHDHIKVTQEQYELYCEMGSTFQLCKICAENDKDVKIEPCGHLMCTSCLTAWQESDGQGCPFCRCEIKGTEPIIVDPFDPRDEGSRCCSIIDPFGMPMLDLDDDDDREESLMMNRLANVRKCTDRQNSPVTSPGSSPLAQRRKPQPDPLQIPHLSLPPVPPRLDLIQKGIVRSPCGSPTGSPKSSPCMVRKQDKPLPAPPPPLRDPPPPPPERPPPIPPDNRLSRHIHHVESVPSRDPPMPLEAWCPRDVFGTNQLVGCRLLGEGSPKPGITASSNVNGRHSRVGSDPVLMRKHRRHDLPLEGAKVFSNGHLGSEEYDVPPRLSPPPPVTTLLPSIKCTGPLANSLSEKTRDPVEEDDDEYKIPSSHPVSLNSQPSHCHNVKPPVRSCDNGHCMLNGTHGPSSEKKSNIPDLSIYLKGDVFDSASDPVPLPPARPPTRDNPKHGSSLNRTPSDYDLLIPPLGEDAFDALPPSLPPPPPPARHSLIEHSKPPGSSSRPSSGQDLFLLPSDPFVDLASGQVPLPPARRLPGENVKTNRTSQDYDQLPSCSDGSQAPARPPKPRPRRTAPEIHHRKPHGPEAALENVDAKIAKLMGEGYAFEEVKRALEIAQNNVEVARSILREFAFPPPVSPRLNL

IC50: 6.5 µM
Structure (SMILES): CC(C)=CCC/C(C)=C/CC/C(C)=C/CC/C(C)=C/C(=O)NCCC[N+](C)(C)CCCC[N+](C)(C)CCCNC(=O)/C=C(\C)CC/C=C(\C)CC/C=C(\C)CCC=C(C)C
